# Read-outs that look alike come from different tables or passages of the source.
# Tests used:
# MV4;11 AML cells = experiment: Luciferase MV4;11 AML engraftment model in NSG mice; assay type: in vivo, mouse; conditions: MV4;11-luciferase, Compound 1, HCl 100 mg/kg oral daily, Compound 2 25 mg/kg IV twice weekly, 4 weeks
# Procedure: In vivo experimentation AML engraftment: Animal studies were performed under the institutional guidelines approved by the Alfred Medical Research and Education Precinct Animal Ethics Committee, MV4; 11 cells transduced with the luciferase reporter (pLUC2) were intravenously injected at 1×10^5 cells into irradiated (100 Rad) non-obese diabetic/severe combined immunodeficient (NOD/SCID/IL2rγnull) mice as previously described (Jin et al., Cell Stem Cell 2 Jul. 2009, Volume 5, Issue 1, Pages 31-42). Engraftment was measured at day 7 by quantifying the percentage of hCD45+ cells in the PB by flow cytometry and by IVIS imaging of bioluminescent MV4; 11 cells. At day 10, mice received daily oral gavage of Compound 1, HCl (200 μL 100mg/kg—dosage expressed as the free base) dissolved in PEG400 (Sigma), absolute ethanol (Sigma) and distilled H20 40:10:60 or Compound 2 (200 μL 25 mg/kg) twice weekly dissolved in 50% 2-hydroxypropyl)-β-cyclodextrin (Sigma) and 50% 50mM HCl or the drug combination or vehicle, over 4 weeks. Blood counts were determined using a hematology analyzer (BioRad, Gladesville, NSW). […]
# To verify the in vivo activity of this approach, luciferase expressing MV4; 11 AML cells were engrafted into NSG mice and treated with Compound 1 (HCl salt) or Compound 2 alone, or in combination and tumour burden assessed after 14 and 21 days of therapy (FIG. 2B). […]
# primary AML blasts = experiment: Cell viability (sytox blue, flow cytometry) of primary AML patient samples, LC50; assay type: cell-based, human; conditions: 54 primary AML samples; 48 h; RPMI/15% FCS; combination at 1:1
# Procedure: Primary AML patient samples: Bone marrow or peripheral blood samples from patients with AML were collected after informed consent in accordance with guidelines approved by The Alfred Hospital Human research ethics committees. Mononuclear cells were isolated by Ficoll-Paque (GE Healthcare, VIC, Aus) density-gradient centrifugation, followed by red cell depletion in ammonium chloride (NH4Cl) lysis buffer at 37° C. for 10 minutes. Cells were then re-suspended in phosphate-buffered saline containing 2% Fetal Bovine serum (Sigma, NSW, Aus). Mononuclear cells were then suspended in RPMI-1640 (GIBCO VIC, Aus) medium containing penicillin and streptomycin (GIBCO) and heat inactivated fetal bovine serum 15% (Sigma).
# Cell Viability: Freshly purified mononuclear cells from AML patient samples were adjusted to a concentration of 2.5×10^5/ml and 100 μL of cells aliquoted per well into 96 well plates (Sigma). […] For combinations assays, drugs were added at a 1:1 ratio from 1 nM to 10 μM and incubated at 37° C. 5% CO2. Cells were then stained with sytox blue nucleic acid stain (Invitrogen, VIC, Aus) and fluorescence measured by flow cytometric analysis using the LSR-II Fortessa (Becton Dickinson, NSW, Aus). FACSDiva software was used for data collection, and FlowJo software for analysis. Blast cells were gated using forward and side scatter properties. […]
# NAN8 = experiment: MTT cell viability assay, myeloma cell line; assay type: cell-based, human
# Procedure: (§1) Cell lines: Human myeloma cell lines (HMCLs) were derived from primary myeloma cells cultured in RPMI 1640 medium supplemented with 5% fetal calf serum from and 3 ng/mL recombinant IL-6 for IL-6 dependent cell lines. HMCLs are representative of phenotypic and genomic heterogeneity and the variability in patient's response to therapy.
# (§2) MTT assay: Cell viability is measured using MTT (3-(4,5-dimethylthiazol-2-yl)-2,5-diphenyltetrazolium bromide) colorimetric survival assay. Cells are incubated with compounds in 96-well plates containing a final volume of 100 μl/well time. (2R)-2-{[(5Sa)-5-{3-chloro-2-methyl-4-[2-(4-methylpiperazin-1-yl)ethoxy]phenyl}-6-(5-fluorofuran-2-yl)thieno[2,3-d]pyrimidin-4-yl]oxy}-3-(2-{[1-(2,2,2-trifluoroethyl)-1H-pyrazol-5-yl]methoxy}phenyl)propanoic acid (Compound 2) is used at 9 different concentrations accordingly to single agent sensitivity. N-(4-hydroxyphenyl)-3-{6-[((3S)-3-(4-morpholinylmethyl)-3,4-dihydro-2(1H)-isoquinolinyl)carbonyl]-1,3-benzodioxol-5-yl}-N-phenyl-5,6,7,8-tetrahydro-1-indolizine carboxamide hydrochloride (Compound 1, HCl) is used at a fixed dose—1 μM. At the end of each treatment, cells are incubated with 1 mg/mL MTT (50 μl MTT solution 2.5 mg/ml for each well) at 37° C. for 3 hours allowing the MTT to be metabolized. Lysis buffer (100 μl Lysis buffer: DMF (2:3)/SDS (1:3)) is added into each well to dissolve formazan cristals and after 18 h of incubation, absorbance in viable cells is measured at 570 nm using a spectrophotometer.
# (§3) The sensitivity of 27 human multiple myeloma cell lines to Compound 1, Compound 2 or to Compound 2 in the presence of 1 μM of Compound 1 was analyzed by using MTT cell viability assay. 50% inhibitory concentrations (IC50, in nM) were determined.
# XG7 = experiment: MTT cell viability assay, myeloma cell line; assay type: cell-based, human
# Procedure: as §1, §2, §3
# AMO1 = experiment: MTT cell viability assay, myeloma cell line; assay type: cell-based, human
# Procedure: as §1, §2, §3
# NAN3 = experiment: MTT cell viability assay, myeloma cell line; assay type: cell-based, human; conditions: single agent
# Procedure: as §1, §2, §3
# OPM2 = experiment: MTT cell viability assay, myeloma cell line; assay type: cell-based, human
# Procedure: as §1, §2, §3
# XG6 = experiment: MTT cell viability assay, myeloma cell line; assay type: cell-based, human
# Procedure: as §1, §2, §3
# XG3 = experiment: MTT cell viability assay, myeloma cell line; assay type: cell-based, human
# Procedure: as §1, §2, §3
# SBN = experiment: MTT cell viability assay, myeloma cell line; assay type: cell-based, human
# Procedure: as §1, §2, §3
# MM1S = experiment: MTT cell viability assay, myeloma cell line; assay type: cell-based, human
# Procedure: as §1, §2, §3
# LP1 = experiment: MTT cell viability assay, myeloma cell line; assay type: cell-based, human
# Procedure: as §1, §2, §3
# L363 = experiment: MTT cell viability assay, myeloma cell line; assay type: cell-based, human
# Procedure: as §1, §2, §3
# ANBL6 = experiment: MTT cell viability assay, myeloma cell line; assay type: cell-based, human
# Procedure: as §1, §2, §3
# U266 = experiment: MTT cell viability assay, myeloma cell line; assay type: cell-based, human
# Procedure: as §1, §2, §3
# RPMI8226 = experiment: MTT cell viability assay, myeloma cell line; assay type: cell-based, human
# Procedure: as §1, §2, §3
# JJN3 = experiment: MTT cell viability assay, myeloma cell line; assay type: cell-based, human
# Procedure: as §1, §2, §3
# NAN9 = experiment: MTT cell viability assay, myeloma cell line; assay type: cell-based, human
# Procedure: as §1, §2, §3
# NAN6 = experiment: MTT cell viability assay, myeloma cell line; assay type: cell-based, human
# Procedure: as §1, §2, §3
# XG11 = experiment: MTT cell viability assay, myeloma cell line; assay type: cell-based, human
# Procedure: as §1, §2, §3
# KMS11 = experiment: MTT cell viability assay, myeloma cell line; assay type: cell-based, human
# Procedure: as §1, §2, §3
# NCI-H929 = experiment: MTT cell viability assay, myeloma cell line; assay type: cell-based, human
# Procedure: as §1, §2, §3
# XG2 = experiment: MTT cell viability assay, myeloma cell line; assay type: cell-based, human
# Procedure: as §1, §2, §3
# NAN1 = experiment: MTT cell viability assay, myeloma cell line; assay type: cell-based, human
# Procedure: as §1, §2, §3
# JIM3 = experiment: MTT cell viability assay, myeloma cell line; assay type: cell-based, human
# Procedure: as §1, §2, §3
# KMM1 = experiment: MTT cell viability assay, myeloma cell line; assay type: cell-based, human
# Procedure: as §1, §2, §3
# KMS12BM = experiment: MTT cell viability assay, myeloma cell line; assay type: cell-based, human
# Procedure: as §1, §2, §3
# BCN = experiment: MTT cell viability assay, myeloma cell line; assay type: cell-based, human
# Procedure: as §1, §2, §3
# XG1 = experiment: MTT cell viability assay, myeloma cell line; assay type: cell-based, human
# Procedure: as §1, §2, §3
# [1] = + 1 μM Compound 1, HCl, read-out: IC50 of Compound 2 in the presence of 1 μM of Compound 1, HCl
smiles,measurement,setting,value
"Cc1c(-c2c(-c3ccc(F)o3)sc3ncnc(O[C@H](Cc4ccccc4OCc4ccnn4CC(F)(F)F)C(=O)O)c23)ccc(OCCN2CCN(C)CC2)c1Cl [Compound 2, (2R)-2-{[(5Sa)-5-{3-chloro-2-methyl-4-[2-(4-methylpiperazin-1-yl)ethoxy]phenyl}-6-(5-fluorofuran-2-yl)thieno[2,3-d]pyrimidin-4-yl]oxy}-3-(2-{[1-(2,2,2-trifluoroethyl)-1H-pyrazol-5-yl]methoxy}phenyl)propanoic acid]","in vivo anti-leukaemic activity (luciferase tumour burden, survival)",MV4;11 AML cells,reduced luciferase bulk
same,proportion of primary AML samples highly sensitive (LC50<10 nM),primary AML blasts,Approximately 20%
same,IC50,NAN8; [1],32.5 nM
same,IC50,"NAN8; single agent, read-out: IC50",75.4 nM
same,IC50,XG7; [1],8 nM
same,IC50,"XG7; single agent, read-out: IC50",16.3 nM
same,IC50,AMO1; [1],0.2 nM
same,IC50,"AMO1; single agent, read-out: IC50",0.5 nM
same,IC50,NAN3,1.5 nM
same,IC50,OPM2; [1],1.2 nM
same,IC50,"OPM2; single agent, read-out: IC50",9.4 nM
same,IC50,XG6; [1],0.5 nM
same,IC50,"XG6; single agent, read-out: IC50",19.2 nM
same,IC50,XG3; [1],1.3 nM
same,IC50,"XG3; single agent, read-out: IC50",6.1 nM
same,IC50,SBN; [1],14.6 nM
same,IC50,"SBN; single agent, read-out: IC50",221 nM
same,IC50,MM1S; [1],23 nM
same,IC50,"MM1S; single agent, read-out: IC50",138 nM
same,IC50,LP1; [1],2.9 nM
same,IC50,"LP1; single agent, read-out: IC50",158 nM
same,IC50,L363; [1],3.4 nM
same,IC50,"L363; single agent, read-out: IC50",7.6 nM
same,IC50,ANBL6; [1],20.8 nM
same,IC50,"ANBL6; single agent, read-out: IC50",79.5 nM
same,IC50,U266; [1],14.9 nM
same,IC50,"U266; single agent, read-out: IC50",170 nM
same,IC50,RPMI8226; [1],3 nM
same,IC50,"RPMI8226; single agent, read-out: IC50",27.4 nM
same,IC50,JJN3; [1],2.4 nM
same,IC50,"JJN3; single agent, read-out: IC50",15.6 nM
same,IC50,NAN9; [1],1.1 nM
same,IC50,"NAN9; single agent, read-out: IC50",9.7 nM
same,IC50,NAN6; [1],1.8 nM
same,IC50,"NAN6; single agent, read-out: IC50",7.1 nM
same,IC50,XG11; [1],8.3 nM
same,IC50,"XG11; single agent, read-out: IC50",375 nM
same,IC50,KMS11; [1],3.9 nM
same,IC50,"KMS11; single agent, read-out: IC50",44.1 nM
same,IC50,NCI-H929; [1],1 nM
same,IC50,"NCI-H929; single agent, read-out: IC50",2.3 nM
same,IC50,XG2; [1],2.7 nM
same,IC50,"XG2; single agent, read-out: IC50",6.4 nM
same,IC50,NAN1; [1],1.4 nM
same,IC50,"NAN1; single agent, read-out: IC50",5.7 nM
same,IC50,JIM3; [1],25.9 nM
same,IC50,"JIM3; single agent, read-out: IC50",56.3 nM
same,IC50,KMM1; [1],8.6 nM
same,IC50,"KMM1; single agent, read-out: IC50",57.8 nM
same,IC50,KMS12BM; [1],0.03 nM
same,IC50,"KMS12BM; single agent, read-out: IC50",44.1 nM
same,IC50,BCN; [1],59.3 nM
same,IC50,"BCN; single agent, read-out: IC50",1110 nM
same,IC50,XG1; [1],0.2 nM
same,IC50,"XG1; single agent, read-out: IC50",5.9 nM

# Source: patent US20190240225A1, “COMBINATION OF A BCL-2 INHIBITOR AND A MCL-1 INHIBITOR, USES AND PHARMACEUTICAL COMPOSITIONS THEREOF” (LES LABORATOIRES SERVIER, priority 2016, published 2019)
